Read-outs that look alike come from different tables or passages of the source.
Assays:
[1] = system: 3D7-strain P. falciparum asexual parasites; assay: P. falciparum asexual growth inhibition assay (Pf GIA); format: cell-based, Plasmodium falciparum; conditions: dose response confirmation; read-out: Pf asexual growth inhibition assays IC50
In short: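 3D7 parasites at 0.25% parasitemia, 2% hematocrit were exposed to compounds in dose response for 72 h at 37°C under 5% CO2, 5% O2. Viability read as parasite LDH activity (nitro blue tetrazolium, A650) after freeze-thaw; inhibition scaled to chloroquine (50 μM) and DMSO controls, mean of three biological replicates.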

[2] = system: P. berghei ookinete development; conditions: for % inhibition, Replicate A / % inhibition, Replicate B: primary screen at 1 μM
HepG2 cells = assay: HepG2 cytotoxicity assay; conditions: for Pb ODA (this manuscript) HepG2 cytoxicity: HepG2 cytotoxicity listed with the Pb ODA data set (this manuscript); for IC50: read-out: HepG2 cytotoxicity assay IC50, dose response confirmation
In short: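 Percent inhibition derived from fluorescent viability readout, normalised to DMSO (negative) and 50 μM doxorubicin (positive). Compound incubation lasted 48 h at 37°C, 5% CO2, with 2,500 HepG2 cells/well in MEM plus 10% FBS and 1% NEAA.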

[3] = read-out: Pb ODA (this manuscript) IC50, P. berghei ookinete development assay, this manuscript
[4] = read-out: Pb Ookinete development assay IC50, dose response confirmation
[5] = read-out: Pb ODA IC50, this manuscript
[6] = unified HepG2 value across the three screens
[7] = HepG2 values of the three screens unified

COc1ccc2nc3cc(Cl)ccc3c(NCc3ccccc3)c2c1.Cl [TCMDC-137663]
IC50 [1]: 424 nM
Is compound selective in assay? Pb ODA active? [2]: 1 (key: 1: YES; 0: NO)
% inhibition, Replicate A [2]: 39.90%
% inhibition, Replicate B [2]: 59.60%
IC50 [2, 3]: 1630 nM
IC50 [2, 4]: 1630 nM
Pb ODA (this manuscript) HepG2 cytoxicity (HepG2 cells): 41.69 µM
IC50 (HepG2 cells): 41700 nM

Cc1nc2nc(N)nc(N)c2c(C)c1Cc1ccccc1.Cl [TCMDC-137670]
IC50 [1]: 169 nM
Is compound selective in assay? Pb ODA active? [2]: 0 (key: 1: YES; 0: NO)
% inhibition, Replicate A [2]: 51.61%
% inhibition, Replicate B [2]: 57.72%
IC50 [2, 3]: 3020 nM
IC50 [2, 4]: 3020 nM
Pb ODA (this manuscript) HepG2 cytoxicity (HepG2 cells): 0.03 µM
IC50 (HepG2 cells): 30 nM

Nc1nc(N)c2c(ccc3c2ncn3Cc2ccccc2)n1 [TCMDC-137749]
IC50 [1]: 244 nM
Is compound selective in assay? Pb ODA active? ([2]; 1: YES, 0: NO): 0 (0: NO)
% inhibition, Replicate A [2]: 48.44%
% inhibition, Replicate B [2]: 74.97%
IC50 [2, 5]: 4450 nM
IC50 [2, 4]: 4450 nM
IC50 (HepG2 cells): 1150 nM
Unified cytotox (HepG2 cells; [6]): 1.15 µM

CCC1=C[C@@H]2CN(C1)Cc1c([nH]c3ccccc13)[C@@](C(=O)OC)(c1cc3c(cc1OC)N(C)[C@H]1[C@@](O)(C(=O)OC)[C@H](O)[C@]4(CC)C=CCN5CC[C@]31[C@@H]54)C2.O=S(=O)(O)O [TCMDC-137769]
IC50 [1]: 213 nM
Is compound selective in assay? Pb ODA active? ([2]; 1: YES, 0: NO): 1 (1: YES)
% inhibition, Replicate A [2]: 141.80%
% inhibition, Replicate B [2]: 104.79%
IC50 [2, 5]: 360 nM
IC50 [2, 4]: 365 nM
IC50 (HepG2 cells): 41200 nM
Unified cytotox (HepG2 cells; [6]): 41.21 µM

Nc1nc(N)c2c(ccc3c2ccn3Cc2ccc3c(c2)OCO3)n1 [TCMDC-137808]
IC50 [1]: < 0.2 nM
Is compound selective in assay? Pb ODA active? ([2]; 1: YES, 0: NO): 0 (0: NO)
% inhibition, Replicate A [2]: 57.79%
% inhibition, Replicate B [2]: 75.32%
IC50 [2, 5]: 450 nM
IC50 [2, 4]: 447 nM
HepG2 cytoxicity (Pb ODA, this manuscript) (HepG2 cells): 0.0324 µM
Unified cytotox (HepG2 cells; [7]): 0.0324 µM
IC50 (HepG2 cells): 32.4 nM

COc1cccc(Cn2ccc3c4c(N)nc(N)nc4ccc32)c1 [TCMDC-137811]
IC50 [1]: < 0.2 nM
Is compound selective in assay? Pb ODA active? ([2]; 1: YES, 0: NO): 0 (0: NO)
% inhibition, Replicate A [2]: 65.46%
% inhibition, Replicate B [2]: 68.96%
IC50 [2, 5]: 1560 nM
IC50 [2, 4]: 1560 nM
HepG2 cytoxicity (Pb ODA, this manuscript) (HepG2 cells): 0.0129 µM
Unified cytotox (HepG2 cells; [7]): 0.0129 µM
IC50 (HepG2 cells): 12.9 nM

Cc1ccccc1Cn1ccc2c3c(N)nc(N)nc3ccc21 [TCMDC-137812]
IC50 [1]: < 0.3 nM
Is compound selective in assay? Pb ODA active? ([2]; 1: YES, 0: NO): 0 (0: NO)
% inhibition, Replicate A [2]: 41.40%
% inhibition, Replicate B [2]: 62.61%
IC50 [2, 5]: 430 nM
IC50 [2, 4]: 429 nM
HepG2 cytoxicity (Pb ODA, this manuscript) (HepG2 cells): 0.00828 µM
Unified cytotox (HepG2 cells; [7]): 0.00828 µM
IC50 (HepG2 cells): 8.28 nM

CCN(C)C(=O)n1ncc2c3c(N)nc(N)nc3ccc21 [TCMDC-137828]
IC50 [1]: 86 nM
Is compound selective in assay? Pb ODA active? [2]: 0 (key: 1: YES; 0: NO)
% inhibition, Replicate A [2]: 30.59%
% inhibition, Replicate B [2]: 54.76%
IC50 [2, 3]: 2560 nM
IC50 [2, 4]: 2560 nM
Pb ODA (this manuscript) HepG2 cytoxicity (HepG2 cells): 0.22 µM
IC50 (HepG2 cells): 220 nM

CCC(C)(C)c1ccc2nc(N)nc(N)c2c1C [TCMDC-137829]
IC50 [1]: 1.07 nM
Is compound selective in assay? Pb ODA active? ([2]; 1: YES, 0: NO): 0 (0: NO)
% inhibition, Replicate A [2]: 40.64%
% inhibition, Replicate B [2]: 76.04%
IC50 [2, 5]: 3100 nM
IC50 [2, 4]: 3100 nM
IC50 (HepG2 cells): 1.7 nM
Unified cytotox (HepG2 cells; [6]): 0.0017 µM

CCc1cc2c3c(N)nc(N)nc3ccc2n1CC [TCMDC-137851]
IC50 [1]: 2.53 nM
Is compound selective in assay? Pb ODA active? ([2]; 1: YES, 0: NO): 0 (0: NO)
% inhibition, Replicate A [2]: 53.59%
% inhibition, Replicate B [2]: 40.48%
IC50 [2, 5]: 990 nM
IC50 [2, 4]: 986 nM
HepG2 cytoxicity (Pb ODA, this manuscript) (HepG2 cells): 0.0224 µM
Unified cytotox (HepG2 cells; [7]): 0.0224 µM
IC50 (HepG2 cells): 22.4 nM

Cl.Nc1nc(N)c2c(ccc3c2cnn3S(=O)(=O)N2CCCC2)n1 [TCMDC-137852]
IC50 [1]: 3.8 nM
Is compound selective in assay? Pb ODA active? [2]: 0 (key: 1: YES; 0: NO)
% inhibition, Replicate A [2]: 40.87%
% inhibition, Replicate B [2]: 51.00%
IC50 [2, 4]: 1530 nM
Pb ODA (this manuscript) HepG2 cytoxicity (HepG2 cells): 0.00412 µM
IC50 (HepG2 cells): 4.12 nM

Cl.Nc1nc(N)c2c(ccc3nn(S(=O)(=O)N4CCCC4)cc32)n1 [TCMDC-137854]
IC50 [1]: 144 nM
Is compound selective in assay? Pb ODA active? [2]: 0 (key: 1: YES; 0: NO)
% inhibition, Replicate A [2]: 55.32%
% inhibition, Replicate B [2]: 26.78%
IC50 [2, 3]: 5300 nM
IC50 [2, 4]: 5300 nM
Pb ODA (this manuscript) HepG2 cytoxicity (HepG2 cells): 0.12 µM
IC50 (HepG2 cells): 120 nM

CCn1c(C(C)C)cc2c3c(N)nc(N)nc3ccc21 [TCMDC-137856]
IC50 [1]: 6.37 nM
Is compound selective in assay? Pb ODA active? ([2]; 1: YES, 0: NO): 0 (0: NO)
% inhibition, Replicate A [2]: 104.91%
% inhibition, Replicate B [2]: 74.96%
IC50 [2, 5]: 590 nM
IC50 [2, 4]: 588 nM
HepG2 cytoxicity (Pb ODA, this manuscript) (HepG2 cells): 0.00302 µM
Unified cytotox (HepG2 cells; [7]): 0.00302 µM
IC50 (HepG2 cells): 3.02 nM

Cc1cc2c3c(N)nc(N)nc3ccc2n1C(C)C [TCMDC-137864]
IC50 [1]: 4 nM
Is compound selective in assay? Pb ODA active? ([2]; 1: YES, 0: NO): 0 (0: NO)
% inhibition, Replicate A [2]: 66.13%
% inhibition, Replicate B [2]: 75.37%
IC50 [2, 5]: 2320 nM
IC50 [2, 4]: 2320 nM
HepG2 cytoxicity (Pb ODA, this manuscript) (HepG2 cells): 0.0331 µM
Unified cytotox (HepG2 cells; [7]): 0.0331 µM
IC50 (HepG2 cells): 33.1 nM

Nc1nc(N)c2c(Cl)c(N3CCOCC3)ccc2n1 [TCMDC-137868]
IC50 [1]: 72 nM
Is compound selective in assay? Pb ODA active? ([2]; 1: YES, 0: NO): 0 (0: NO)
% inhibition, Replicate A [2]: 53.12%
% inhibition, Replicate B [2]: 26.39%
IC50 [2, 5]: 3800 nM
IC50 [2, 4]: 3800 nM
IC50 (HepG2 cells): 8.61 nM
Unified cytotox (HepG2 cells; [6]): 0.00861 µM

CCC(C(C)C)n1ccc2c3c(N)nc(N)nc3ccc21 (stereo not shown) [TCMDC-137872]
IC50 [1]: < 0.2 nM
Is compound selective in assay? Pb ODA active? ([2]; 1: YES, 0: NO): 0 (0: NO)
% inhibition, Replicate A [2]: 63.79%
% inhibition, Replicate B [2]: 69.72%
IC50 [2, 5]: 470 nM
IC50 [2, 4]: 474 nM
HepG2 cytoxicity (Pb ODA, this manuscript) (HepG2 cells): 0.0017 µM
Unified cytotox (HepG2 cells; [7]): 0.0017 µM
IC50 (HepG2 cells): 1.7 nM

Cl.OCC(CO)(CO)NCc1ccc2c3c(cccc13)-c1ccccc1-2 [TCMDC-137877]
IC50 [1]: 1970 nM
Is compound selective in assay? Pb ODA active? ([2]; 1: YES, 0: NO): 1 (1: YES)
% inhibition, Replicate A [2]: 56.61%
% inhibition, Replicate B [2]: 22.47%
IC50 [2, 5]: 560 nM
IC50 [2, 4]: 564 nM
IC50 (HepG2 cells): 9550 nM
Unified cytotox (HepG2 cells; [6]): 9.55 µM

CCCC(CCC)n1ccc2c3c(N)nc(N)nc3ccc21.Cl [TCMDC-137949]
IC50 [1]: < 0.2 nM
Is compound selective in assay? Pb ODA active? ([2]; 1: YES, 0: NO): 0 (0: NO)
% inhibition, Replicate A [2]: 42.83%
% inhibition, Replicate B [2]: 73.31%
IC50 [2, 5]: 2780 nM
IC50 [2, 4]: 2780 nM
HepG2 cytoxicity (Pb ODA, this manuscript) (HepG2 cells): 0.0017 µM
Unified cytotox (HepG2 cells; [7]): 0.0017 µM
IC50 (HepG2 cells): 1.7 nM

Nc1nc(N)c2c(ccc3c2ccn3CCCCO)n1 [TCMDC-137959]
IC50 [1]: 61 nM
Is compound selective in assay? Pb ODA active? ([2]; 1: YES, 0: NO): 0 (0: NO)
% inhibition, Replicate A [2]: 70.70%
% inhibition, Replicate B [2]: 40.44%
IC50 [2, 5]: 3090 nM
IC50 [2, 4]: 3090 nM
HepG2 cytoxicity (Pb ODA, this manuscript) (HepG2 cells): 0.0759 µM
Unified cytotox (HepG2 cells; [7]): 0.0759 µM
IC50 (HepG2 cells): 75.9 nM
